Measured values from article PMC4294348 (Oncotarget, 2014).

Experiment: Motesanib plasma pharmacokinetics (LC-MS/MS)
Type: in vivo, human
Settings: for Cmax / AUC / Tmax: human, plasma; for Cmax / AUC: po; for AUC: time 0 to 24 hours; for Tmax: listed as 'Mean'
Procedure: Motesanib PK was assessed by comparing week 1 versus week 4 or 5 (motesanib without and with trebananib, respectively). Serum samples for the evaluation of minimum and maximum observed trebananib concentrations in the plasma were collected immediately before dosing on day 1 of weeks 2, 3, 4, 5, 6, 8, and every 8 weeks thereafter until 4 weeks after the last dose of study treatment. In addition, intensive sampling was conducted at the end of infusion, and 6, 24, 48, and 96 hours following dosing on day 1 of weeks 4 or 5. The samples were analysed for trebananib concentrations employing a validated enzyme-linked immunosorbent assay.
For motesanib, postdose samples were taken at 0.5, 1, 4, 6, and 24 hours during weeks 1 and 5 (without and with trebananib coadministration, respectively). Motesanib plasma concentrations were assessed with a validated liquid chromatography/mass spectrometry (LC-MS/MS) method at Cedra Corporation (Austin, TX).

[1] = 75 mg, motesanib 75 mg oral QD without trebananib, mean
[2] = 125 mg, motesanib 125 mg oral QD without trebananib, mean
[3] = motesanib 75 mg oral QD with trebananib 3 mg kg^−1, mean
[4] = motesanib 125 mg oral QD with trebananib 3 mg kg^−1, mean

- Cmax [1]: 466 ng/mL
- AUC [1]: 2580 ng·h/mL
- Cmax [2]: 559 ng/mL
- AUC [2]: 3130 ng·h/mL
- Cmax [3]: 507 ng/mL
- Cmax [4]: 541 ng/mL
- AUC [3]: 3180 ng·h/mL
- AUC [4]: 3920 ng·h/mL
- Tmax (motesanib 75 mg oral QD with trebananib 3 mg kg^−1): 1 h
- Tmax (motesanib 75 mg oral QD without trebananib): 1.1 h
- Tmax (motesanib 125 mg oral QD without trebananib): 1 h
- Effect of trebananib on motesanib PK (motesanib 75 mg or 125 mg with trebananib 3 mg kg^−1): did not appear to be affected
- CL (motesanib 75 mg oral QD without trebananib, mean): 0.348 mL/min/kg
SMILES: CC1(C)CNc2cc(NC(=O)c3cccnc3NCc3ccncc3)ccc21 [Motesanib]
